In ChEMBL document CHEMBL3425423, “Hydroxy tricyclic 1,5-naphthyridinone oxabicyclooctane-linked novel bacterial topoisomerase inhibitors as broad-spectrum antibacterial agents-SAR of RHS moiety (Part-3)” (Bioorg Med Chem Lett, 2015):
Values after ≈ are worked out from the molar mass of the structure shown.

Assays:
[1] = system: Mus musculus; assay: Dose normalized AUC in C57BL/6 mouse at 1 mg/kg, iv and 2 mg/kg, po; assay type: ADME, organism-based; conditions: in vivo
[2] = system: Acinetobacter baumannii; assay: Antibacterial activity against Acinetobacter baumannii IID876; assay type: functional; conditions: Acinetobacter baumannii, IID876; read-out: MIC
[3] = system: Staphylococcus aureus; assay: Antibacterial activity against Staphylococcus aureus Smith infected in iv dosed ICR mouse assessed as survival rate administered at 1 hr post infection measured over 7 days; assay type: functional
[4] = Half life in C57BL/6 mouse at 1 mg/kg, iv and 2 mg/kg, po; assay type: ADME, organism-based; conditions: in vivo
[5] = system: Pseudomonas aeruginosa; assay: Antibacterial activity against Pseudomonas aeruginosa PAO1; assay type: functional; conditions: Pseudomonas aeruginosa, PAO1; read-out: MIC
[6] = system: Enterococcus faecalis; assay: Antibacterial activity against Enterococcus faecalis ATCC 29212; assay type: functional; conditions: Enterococcus faecalis, ATCC 29212; read-out: MIC
[7] = system: Staphylococcus aureus; assay: Antibacterial activity against Staphylococcus aureus Smith; assay type: functional; conditions: Staphylococcus aureus, Smith; read-out: MIC
[8] = system: Staphylococcus aureus; assay: Antibacterial activity against Staphylococcus aureus Smith infected in iv dosed CD1 mouse administered at 0.5 hrs post infection; assay type: functional
[9] = system: Streptococcus pneumoniae; assay: Antibacterial activity against Streptococcus pneumoniae IID554; assay type: functional; conditions: Streptococcus pneumoniae, IID554; read-out: MIC
[10] = system: Enterococcus faecium; assay: Antibacterial activity against VanA-type vancomycin-resistant Enterococcus faecium A2373; assay type: functional; conditions: Enterococcus faecium, A2373; read-out: MIC
[11] = Oral bioavailability in C57BL/6 mouse at 2 mg/kg; assay type: ADME, organism-based; conditions: in vivo
[12] = Volume of distribution at steady state in C57BL/6 mouse at 1 mg/kg, iv and 2 mg/kg, po; assay type: ADME, organism-based; conditions: in vivo, read-out: Vdss
[13] = Plasma clearance in C57BL/6 mouse at 1 mg/kg, iv and 2 mg/kg, po; assay type: ADME, organism-based
[14] = system: Escherichia coli; assay: Antibacterial activity against Escherichia coli ATCC 25922; assay type: functional; conditions: Escherichia coli, ATCC 25922; read-out: MIC
[15] = system: Staphylococcus aureus; assay: Antibacterial activity against Staphylococcus aureus Smith infected in po dosed ICR mouse assessed as survival rate administered at 1 hr post infection measured over 7 days; assay type: functional
[16] = system: Staphylococcus aureus; assay: Antibacterial activity against Staphylococcus aureus; assay type: functional
[17] = system: Streptococcus pneumoniae; assay: Antibacterial activity against Streptococcus pneumoniae; assay type: functional
[18] = target: T1, Voltage-gated inwardly rectifying potassium channel KCNH2 (Homo sapiens, UniProt Q12809); assay: Inhibition of human ERG expressed in CHO cells measured over 5 mins by patch clamp assay
T1 sequence (Q12809 whole entry): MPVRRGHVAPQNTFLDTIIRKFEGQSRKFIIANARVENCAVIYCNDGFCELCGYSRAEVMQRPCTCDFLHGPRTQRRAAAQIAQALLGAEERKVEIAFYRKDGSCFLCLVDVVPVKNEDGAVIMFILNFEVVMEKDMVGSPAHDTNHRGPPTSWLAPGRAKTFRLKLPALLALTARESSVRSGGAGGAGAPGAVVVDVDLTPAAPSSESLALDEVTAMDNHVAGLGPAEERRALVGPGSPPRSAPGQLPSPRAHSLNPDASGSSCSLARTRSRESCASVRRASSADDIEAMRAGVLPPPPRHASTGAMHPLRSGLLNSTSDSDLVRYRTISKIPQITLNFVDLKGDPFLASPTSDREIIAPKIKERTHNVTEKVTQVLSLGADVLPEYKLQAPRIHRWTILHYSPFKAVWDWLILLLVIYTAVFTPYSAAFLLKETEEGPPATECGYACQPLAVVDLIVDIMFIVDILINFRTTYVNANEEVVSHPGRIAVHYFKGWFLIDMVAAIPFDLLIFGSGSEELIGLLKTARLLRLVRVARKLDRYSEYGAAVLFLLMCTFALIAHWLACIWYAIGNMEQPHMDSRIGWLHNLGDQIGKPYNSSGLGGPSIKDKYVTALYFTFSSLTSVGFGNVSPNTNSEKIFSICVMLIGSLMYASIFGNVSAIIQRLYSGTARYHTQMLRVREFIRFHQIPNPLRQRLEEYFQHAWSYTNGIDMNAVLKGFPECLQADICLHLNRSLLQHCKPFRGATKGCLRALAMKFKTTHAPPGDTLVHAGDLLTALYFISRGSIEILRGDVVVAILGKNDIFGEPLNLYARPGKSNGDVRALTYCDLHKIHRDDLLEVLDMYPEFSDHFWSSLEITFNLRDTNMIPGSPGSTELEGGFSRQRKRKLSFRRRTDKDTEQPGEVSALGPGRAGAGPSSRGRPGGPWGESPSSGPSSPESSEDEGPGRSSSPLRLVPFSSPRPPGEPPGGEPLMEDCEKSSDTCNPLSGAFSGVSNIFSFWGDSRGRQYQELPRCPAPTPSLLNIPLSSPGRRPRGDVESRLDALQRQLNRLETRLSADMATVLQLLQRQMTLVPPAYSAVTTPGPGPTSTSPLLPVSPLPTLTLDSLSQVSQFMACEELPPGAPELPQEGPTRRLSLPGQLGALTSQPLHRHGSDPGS

[19] = system: Staphylococcus aureus; assay: Ratio of MIC for quinolone-resistant Staphylococcus aureus MS5935 to MIC for quinolone-sensitive Staphylococcus aureus; assay type: functional
[20] = target: T1, Voltage-gated inwardly rectifying potassium channel KCNH2; assay: Displacement of MK499 from human ERG
[21] = system: Staphylococcus aureus; assay: Antibacterial activity against Staphylococcus aureus Smith infected in po dosed CD1 mouse administered at 0.5 hrs post infection; assay type: functional
[22] = system: Staphylococcus aureus; assay: Antibacterial activity against quinolone-sensitive Staphylococcus aureus MS5935
[23] = system: Staphylococcus aureus; assay: Antibacterial activity against quinolone-resistant Staphylococcus aureus MS5935; assay type: functional

Structure (SMILES) | AUC/dose [1] [µM·h/mg/kg] | MIC [2] [µg/mL] | half-life [4] [h] | MIC [5] [µg/mL] | MIC [6] [µg/mL] | MIC [7] [µg/mL] | ED90 [8] [mg/kg] | MIC [9] [µg/mL] | MIC [10] [µg/mL] | bioavailability [11] [%] | Vd [12] [L/kg] | clearance [13] [mL/min/kg] | MIC [14] [µg/mL] | IC50 [18] [µM] | Ratio [19] | IC50 [20] [µM] | ED90 [21] [mg/kg] | further results
O=c1ccc2ncc(F)c3c2n1C[C@@]3(O)CC12CCC(NCc3cc4c(cn3)OCCO4)(CC1)CO2 | 0.5 | 8 (≈ 16.2 µM) | 2 | 16 (≈ 32.4 µM) | 8 (≈ 16.2 µM) | 0.5 (≈ 1.01 µM) | 12 | 2 (≈ 4.04 µM) | 16 (≈ 32.4 µM) | 60 | 17 | 47 | 16 (≈ 32.4 µM) | – | – | – | – | ED50 [3]: 11 mg/kg; ED50 [15]: 5.1 mg/kg
O=c1ccc2ncc(=O)n3c2n1C[C@H]3CN1CCC(NCc2cc3c(cn2)OCCC3)CC1 [GEPOTIDACIN] | – | – | – | – | – | – | – | – | – | – | – | – | – | – | – | – | – | MIC90 [16]: 0.5 µg/mL (≈ 1.11 µM); MIC90 [17]: 0.25 µg/mL (≈ 0.557 µM)
O=C1COc2cc(Cl)c(CNC34CCC(C[C@]5(O)Cn6c(=O)ccc7ncc(F)c5c76)(CC3)OC4)nc2N1 | 0.7 | 2 (≈ 3.69 µM) | 3.5 | 16 (≈ 29.5 µM) | 8 (≈ 14.8 µM) | 0.25 (≈ 0.461 µM) | 24 | 2 (≈ 3.69 µM) | 16 (≈ 29.5 µM) | 51 | 7 | 38 | 8 (≈ 14.8 µM) | 126 | <4 | 27.7 | 29 | –
O=C1COc2cc(F)c(CNC34CCC(C[C@]5(O)Cn6c(=O)ccc7ncc(F)c5c76)(CC3)OC4)nc2N1 | 2.1 | 8 (≈ 15.2 µM) | 1.7 | 16 (≈ 30.4 µM) | 4 (≈ 7.61 µM) | 0.5 (≈ 0.951 µM) | 12 | 2 (≈ 3.81 µM) | 16 (≈ 30.4 µM) | 39 | 1.3 | 15 | 8 (≈ 15.2 µM) | 333 | <4 | > 60 | 15 | –
C[C@H]1COc2c(N3CCN(C)CC3)c(F)cc3c(=O)c(C(=O)O)cn1c23.C[C@H]1COc2c(N3CCN(C)CC3)c(F)cc3c(=O)c(C(=O)O)cn1c23.O [LEVOFLOXACIN] | – | – | – | – | – | – | – | – | – | – | – | – | – | – | >64 | – | – | MIC [22]: 0.25 µg/mL; MIC [23]: > 16 µg/mL
